Consider one molecule from patent US20260144798A1, “Disruption of Vascular Smooth Muscle Relaxation by Carfilzomib May be the Primary Reason for CFZ-Induced Vascular Dysfunction” (AMGEN INC., priority 2019, published 2026).

One data set deals with GUCY1A3. The data set can be described thus: GUCY1A3 gene expression by RT-PCR in human aortic smooth muscle cells. The settings on record: 24-hour treatment, 2.7 μM CFZ, SMCs (FIG. 4B). In kind it is cell-based. As for the experimental part: To confirm whether results could be replicated in human tissue, human aortic smooth muscle cells (Lonza, Walkersville, MD) were cultured in SmGM-2™ Smooth Muscle Cell Growth Medium-2 BulletKit™ (Lonza). The cells were maintained at 37° C. in a humidified incubator with 5% CO2. Cells were seeded at a concentration of 2.5×10^5 cells/mL of medium. After 1 day of culture, fresh medium with or without 2.7 μM CFZ was added and incubated for 6 or 24 hours.
Cell pellets were lysed in Buffer RLT (Qiagen, Germantown, MD) supplemented with β-mercaptoethanol (Bio-Rad, Hercules, CA). RNA was isolated and purified using QIAcube (Qiagen). The RNA concentration and quality were determined by NanoDrop 8000 spectrophotometer (Thermo Fisher Scientific, Wilmington, DE). DNA contaminant was removed through DNase I (Promega, Madison, WI) digestion prior to quantitative RT-PCR. Quantitative RT-PCR was performed in the QuantStudio 7 Flex RT-PCR system (Thermo Fisher Scientific) with RNA-to-CT 1-Step Kit (Thermo Fisher Scientific) and TaqMan assays (Applied Biosystems, Foster City, CA). The TaqMan assays were GUCY1A3(Hs01015574_m1) and 18S rRNA. Multiplex reactions were run in triplicates with the genes of interest and 18S rRNA normalization control. The average relative quantities were calculated from three separate experiments.

Data set [1] in a line: Highest applicable CFZ concentration in the myograph chamber (saturation, precipitation). The settings on record: oxygenated myograph chamber, Krebs-Henseleit buffer. In kind it is physicochemical.

`CC(C)C[C@H](NC(=O)[C@H](CCc1ccccc1)NC(=O)CN1CCOCC1)C(=O)N[C@@H](Cc1ccccc1)C(=O)N[C@@H](CC(C)C)C(=O)[C@@]1(C)CO1` [CFZ, carfilzomib]: in the data set on GUCY1A3, the “upregulation of GUCY1A3 gene expression” value was “more than 25 fold”. The molecule further yielded a highest CFZ concentration that could be applied; further increase gave saturated solution and precipitation in data set [1] of 2.7 µM.
